Measured values from patent US20230040770A1, “HETEROCYCLIC COMPOUND AND USE THEREOF” (TAKEDA PHARMACEUTICAL COMPANY LIMITED, priority 2019, published 2023).

Target: T1, human orexin type 2 receptor (Homo sapiens, UniProt O43614)
T1 construct: expressed in transfected cells
T1 sequence (O43614 1-444): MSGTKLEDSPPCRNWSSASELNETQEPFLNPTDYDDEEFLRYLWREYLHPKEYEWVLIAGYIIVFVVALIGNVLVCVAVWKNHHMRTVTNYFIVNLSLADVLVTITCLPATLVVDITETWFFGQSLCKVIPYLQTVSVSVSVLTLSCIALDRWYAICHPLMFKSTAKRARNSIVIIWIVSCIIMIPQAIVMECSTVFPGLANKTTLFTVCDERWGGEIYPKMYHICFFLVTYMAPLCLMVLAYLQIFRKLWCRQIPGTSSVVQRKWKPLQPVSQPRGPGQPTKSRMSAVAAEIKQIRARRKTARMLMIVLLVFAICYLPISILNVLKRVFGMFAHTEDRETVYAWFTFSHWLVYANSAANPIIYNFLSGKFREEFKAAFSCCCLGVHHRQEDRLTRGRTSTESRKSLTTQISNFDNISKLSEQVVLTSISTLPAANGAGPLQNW
Experiment: Measurement of orexin type 2 receptor agonist activity (calcium indicator fluorescence, CHO cells forcibly expressing human OX2 receptor)
Type: cell-based
Conditions: compound at 3 μM; 0% = DMSO, 100% = orexin A (human) 10 nM
Description: To obtain a cell clone stably expressing human orexin type 2 receptor, human orexin type 2 receptor cDNA was inserted into pcDNA3.1(+) plasmid vector (Invitrogen), and a plasmid DNA for expression of human orexin type 2 receptor (pcDNA3.1(+)/hOX2R) was cloned. The plasmid DNA was introduced into CHO-dhfr cell by an electroporation method, and human orexin type 2 receptor expressing clone cells were obtained by limiting dilution method by using G418 drug resistance as a selection marker.
CHO cells forcibly expressing human OX2 receptor were seeded in each well of 384 well black transparent bottom plate (BD Falcon) at 7,500 cells/well, and cultured for one day in a 5% CO2 incubator at 37° C. After removal of the medium in the cell plate, assay buffer A containing a calcium indicator (HBSS (Thermo Fisher Scientific), 20 mM HEPES (Thermo Fisher Scientific), 0.1% BSA (Sigma-Aldrich), 2.5 μg/mL Fluo-4 AM (DOJINDO Chemical), 0.08% Pluronic F127 (DOJINDO Chemical), 1.25 mM probenecid (DOJINDO Chemical)) was added at 30 μL/well. The plate was stood for 30 min in a 5% CO2 incubator at 37° C., and further stood at room temperature for 30 min. A test compound prepared by diluting with assay buffer B (HBSS, 20 mM HEPES, 0.1% BSA) was added at 10 μL/well, and the fluorescence value was measured by FDSSμCELL (Hamamatsu Photonics K.K.) every one sec for 1 min, and thereafter every two sec for […]. The activity (%) of the test compound was calculated assuming that variation in the fluorescence value when DMSO was added instead of the test compound was 0%, and variation in the fluorescence value when orexin A (human) (PEPTIDE INSTITUTE, INC.) was added at the final concentration of 10 nM was 100%.

SMILES | OX2R agonist activity (3 μM, %) [%]
Cc1cccc(-c2cccc(C[C@H]3[C@@H](NS(=O)(=O)C4CC4)[C@@H](F)CN3C(=O)C3(O)CCC3)c2F)c1 [Example 537, N-[(2S,3R,4S)-4-fluoro-2-[(2-fluoro-3′-methyl[1,1′-biphenyl]-3-yl)methyl]-1-(1-hydroxycyclobutane-1-carbonyl)pyrrolidin-3-yl]cyclopropanesulfonamide] | 100
CS(=O)(=O)N[C@@H]1[C@H](Cc2cccc(-c3cccc(F)c3)c2)N(C(=O)[C@H]2CCCO2)CC1(F)F [Example 26, N-{(2S,3R)-4,4-difluoro-2-[(3′-fluoro[1,1′-biphenyl]-3-yl)methyl]-1-[(2R)-oxolane-2-carbonyl]pyrrolidin-3-yl}methanesulfonamide] | 100
CCS(=O)(=O)N[C@H]1[C@@H](F)CN(C(=O)C(C)(C)O)[C@H]1Cc1cccc(-c2cccc(Cl)c2)c1F [Example 346, N-[(2S,3R,4S)-2-[(3′-chloro-2-fluoro[1,1′-biphenyl]-3-yl)methyl]-4-fluoro-1-(2-hydroxy-2-methylpropanoyl)pyrrolidin-3-yl]ethanesulfonamide] | 93
O=C(C1CCO1)N1C[C@H](F)[C@H](NS(=O)(=O)C2CC2)[C@@H]1Cc1cccc(-c2cccc(F)c2)c1F (stereo partly drawn) [Example 385, N-[(2S,3R,4S)-2-[(2,3′-difluoro[1,1′-biphenyl]-3-yl)methyl]-4-fluoro-1-(oxetane-2-carbonyl)pyrrolidin-3-yl]cyclopropanesulfonamide] | 95
O=C(C1CCO1)N1C[C@H](F)[C@H](NS(=O)(=O)C2CC2)[C@@H]1Cc1cccc(-c2cccc(Cl)c2)c1F (stereo partly drawn) [Example 485, N-[(2S,3R,4S)-2-[(3′-chloro-2-fluoro[1,1′-biphenyl]-3-yl)methyl]-4-fluoro-1-(oxetane-2-carbonyl)pyrrolidin-3-yl]cyclopropanesulfonamide] | 93
CCS(=O)(=O)N[C@H]1[C@@H](F)CN(C(=O)C(C)(C)O)[C@H]1Cc1cccc(-c2cc(F)cc(Cl)c2)c1F [Example 345, N-[(2S,3R,4S)-2-[(3′-chloro-2,5′-difluoro[1,1′-biphenyl]-3-yl)methyl]-4-fluoro-1-(2-hydroxy-2-methylpropanoyl)pyrrolidin-3-yl]ethanesulfonamide] | 92
Cc1cccc(-c2cccc(C[C@H]3[C@@H](NS(=O)(=O)C4CC4)[C@@H](F)CN3C(=O)C3CCO3)c2F)c1F (stereo partly drawn) [Example 490, N-[(2S,3R,4S)-2-[(2,2′-difluoro-3′-methyl[1,1′-biphenyl]-3-yl)methyl]-4-fluoro-1-(oxetane-2-carobnyl)pyrrolidin-3-yl]cyclopropanesulfonamide] | 93
CCS(=O)(=O)N[C@H]1[C@@H](F)CN(C(=O)C2CC2)[C@H]1Cc1cccc(-c2ccccc2)c1F [Example 239, N-{(2S,3R,4S)-1-(cyclopropanecarbonyl)-4-fluoro-2-[(2-fluoro[1,1′-biphenyl]-3-yl)methyl]pyrrolidin-3-yl}ethanesulfonamide] | 102
Cc1cccc(-c2cccc(C[C@H]3[C@@H](NS(=O)(=O)C4CC4)[C@@H](F)CN3C(=O)C3CCO3)c2F)c1 (stereo partly drawn) [Example 484, N-[(2S,3R,4S)-4-fluoro-2-[(2-fluoro-3′-methyl[1,1′-biphenyl]-3-yl)methyl]-1-(oxetane-2-carbonyl)pyrrolidin-3-yl]cyclopropanesulfonamide] | 90
CS(=O)(=O)N[C@H]1[C@@H](F)CN(C(=O)C2CCO2)[C@H]1Cc1cccc(-c2cccc(F)c2)c1F (stereo partly drawn) [Example 323, N-[(2S,3R,4S)-2-[(2,3′-difluoro[1,1′-biphenyl]-3-yl)methyl]-4-fluoro-1-(oxetane-2-carbonyl)pyrrolidin-3-yl]methanesulfonamide] | 92

Next, values leading:

OX2R agonist activity (3 μM, %) [%] | SMILES
96 | CCS(=O)(=O)N[C@@H]1[C@H](Cc2cccc(-c3cccc(C(F)F)c3)c2F)N(C(=O)C2CC2)CC1(F)F [Example 508, N-[(2S,3R)-1-(cyclopropanecarbonyl)-2-{[3′-(difluoromethyl)-2-fluoro[1,1′-biphenyl]-3-yl]methyl}-4,4-difluoropyrrolidin-3-yl]ethanesulfonamide]
91 | CCS(=O)(=O)N[C@@H]1[C@H](Cc2cccc(-c3cc(F)ccc3F)c2F)N(C(=O)C(C)C)CC1(F)F [Example 147, N-{(2S,3R)-4,4-difluoro-1-(2-methylpropanoyl)-2-[(2,2′,5′-trifluoro[1,1′-biphenyl]-3-yl)methyl]pyrrolidin-3-yl}ethanesulfonamide]
96 | CCS(=O)(=O)N[C@@H]1[C@H](Cc2cccc(-c3cc(F)c(F)cc3F)c2F)N(C(=O)C2CCO2)CC1(F)F (stereo partly drawn) [Example 477, N-{(2S,3R)-4,4-difluoro-1-(oxetane-2-carbonyl)-2-[(2,2′,4′,5′-tetrafluoro[1,1′-biphenyl]-3-yl)methyl]pyrrolidin-3-yl}ethanesulfonamide]
94 | CCS(=O)(=O)N[C@@H]1[C@H](Cc2cccc(-c3cccc(F)c3)c2F)N(C(=O)C2CC2)CC1(F)F [Example 202, N-{(2S,3R)-1-(cyclopropanecarbonyl)-2-[(2,3′-difluoro[1,1′-biphenyl]-3-yl)methyl]-4,4-difluoropyrrolidin-3-yl}ethanesulfonamide]
93 | CCS(=O)(=O)N[C@@H]1[C@H](Cc2cccc(-c3cccc(OC(F)F)c3)c2F)N(C(=O)C23CC(C2)C3)CC1(F)F [Example 551, N-[(2S,3R)-1-(bicyclo[1.1.1]pentane-1-carbonyl)-2-{[3′-(difluoromethxoy)-2-fluoro[1,1′-biphenyl]-3-yl]methyl}-4,4-difluoropyrrolidin-3-yl]ethanesulfonamide]
77 | CCS(=O)(=O)N[C@@H]1[C@H](Cc2cccc(-c3cc(F)ccc3F)c2F)N(C(=O)[C@H]2CCCO2)CC1(F)F [Example 456, N-{(2S,3R)-4,4-difluoro-1-[(2R)-oxolane-2-carbonyl]-2-[(2,2′,5′-trifluoro[1,1′-biphenyl]-3-yl)methyl]pyrrolidin-3-yl}ethanesulfonamide]
88 | CS(=O)(=O)N[C@@H]1[C@H](Cc2cccc(-c3cccc(F)c3F)c2F)N(C(=O)C2CC(F)C2)CC1(F)F (stereo partly drawn) [Example 435, N-{(2S,3R)-4,4-difluoro-1-(3-fluorocyclobutane-1-carbonyl)-2-[(2,2′,3′-trifluoro[1,1′-biphenyl]-3-yl)methyl]pyrrolidin-3-yl}methanesulfonamide]
102 | CS(=O)(=O)N[C@@H]1[C@H](Cc2cccc(-c3ccccc3)c2F)N(C(=O)C2CCO2)CC1(F)F (stereo partly drawn) [Example 79, N-[(2S,3R)-4,4-difluoro-2-[(2-fluoro[1,1′-biphenyl]-3-yl)methyl]-1-(oxetane-2-carbonyl)pyrrolidin-3-yl]methanesulfonamide]
90 | CCS(=O)(=O)N[C@@H]1[C@H](Cc2cccc(-c3cccc(C(F)F)c3)c2F)N(C(=O)C2CCO2)CC1(F)F (stereo partly drawn) [Example 504, N-[(S,3R)-2-{[3′-(difluoromethyl)-2-fluoro[1,1′-biphenyl]-3-yl]methyl}-4,4-difluoro-1-(oxetane-2-carbonyl)pyrrolidin-3-yl]ethanesulfonamide]
90 | CCS(=O)(=O)N[C@@H]1[C@H](Cc2cccc(-c3cccc(F)c3)c2)N(C(=O)C(C)C)CC1(F)F [Example 97, N-[(2S,3R)-4,4-difluoro-2-[(3′-fluoro[1,1′-biphenyl]-3-yl)methyl]-1-(2-methylpropanoyl)pyrrolidin-3-yl]ethanesulfonamide]
94 | CC(C)C(=O)N1CC(F)(F)[C@H](NS(C)(=O)=O)[C@@H]1Cc1cccc(-c2cccc(F)c2F)c1 [Example 131, N-[(2S,3R)-2-[(2′,3′-difluoro[1,1′-biphenyl]-3-yl)methyl]-4,4-difluoro-1-(2-methylpropanoyl)pyrrolidin-3-yl]methanesulfonamide]
99 | CCS(=O)(=O)N[C@@H]1[C@H](Cc2cccc(-c3ccccc3)c2)N(C(=O)C2CCO2)CC1(F)F (stereo partly drawn) [Example 50, N-[(2S,3R)-2-[([1,1′-biphenyl]-3-yl)methyl]-4,4-difluoro-1-(oxetane-2-carbonyl)pyrrolidin-3-yl]ethanesulfonamide]
